Reference: PubChem BioAssay (NCI)
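Assay format: 96-well plates, 48-hour exposure. GI50: concentration for 50% inhibition of growth. TGI marks complete inhibition of growth.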

Key:
Assay in all cases: NCI anticancer screen, dose series, 48 h
BT-549 breast = test system: BT-549 breast
CAKI-1 renal = test system: CAKI-1 renal
HT29 colon = test system: HT29 colon
A498 renal = test system: A498 renal
U251 CNS = test system: U251 CNS
NCI/ADR-RES ovarian = test system: NCI/ADR-RES ovarian
UO-31 renal = test system: UO-31 renal
COLO 205 colon = test system: COLO 205 colon
SK-MEL-2 melanoma = test system: SK-MEL-2 melanoma
MOLT-4 leukemia = test system: MOLT-4 leukemia
SR leukemia = test system: SR leukemia
SF-268 CNS = test system: SF-268 CNS
T-47D breast = test system: T-47D breast
OVCAR-4 ovarian = test system: OVCAR-4 ovarian
RXF 393 renal = test system: RXF 393 renal
HCC-2998 colon = test system: HCC-2998 colon
HS 578T breast = test system: HS 578T breast
SK-MEL-5 melanoma = test system: SK-MEL-5 melanoma
KM12 colon = test system: KM12 colon
NCI-H226 lung = test system: NCI-H226 lung
SNB-19 CNS = test system: SNB-19 CNS
SN12C renal = test system: SN12C renal
MCF7 breast = test system: MCF7 breast
A549 NSCLC = test system: A549 NSCLC
SNB-75 CNS = test system: SNB-75 CNS
OVCAR-3 ovarian = test system: OVCAR-3 ovarian
SW-620 colon = test system: SW-620 colon
OVCAR-8 ovarian = test system: OVCAR-8 ovarian
HOP-62 NSCLC = test system: HOP-62 NSCLC
UACC-62 melanoma = test system: UACC-62 melanoma
PC-3 prostate = test system: PC-3 prostate
NCI-H460 lung = test system: NCI-H460 lung
K-562 leukemia = test system: K-562 leukemia
SF-295 CNS = test system: SF-295 CNS
MDA-MB-468 breast = test system: MDA-MB-468 breast
EKVX NSCLC = test system: EKVX NSCLC
ACHN renal = test system: ACHN renal
M14 melanoma = test system: M14 melanoma
HCT-15 colon = test system: HCT-15 colon
TK-10 renal = test system: TK-10 renal
HL-60(TB) leukemia = test system: HL-60(TB) leukemia
MDA-MB-231 breast = test system: MDA-MB-231 breast
CCRF-CEM leukemia = test system: CCRF-CEM leukemia
LOX IMVI melanoma = test system: LOX IMVI melanoma
NCI-H23 lung = test system: NCI-H23 lung
MDA-MB-435 = test system: MDA-MB-435
NCI-H522 lung = test system: NCI-H522 lung
OVCAR-5 ovarian = test system: OVCAR-5 ovarian
HCT-116 colon = test system: HCT-116 colon
SK-MEL-28 melanoma = test system: SK-MEL-28 melanoma
SF-539 CNS = test system: SF-539 CNS
786-0 renal = test system: 786-0 renal
DU-145 prostate = test system: DU-145 prostate
UACC-257 melanoma = test system: UACC-257 melanoma
SK-OV-3 ovarian = test system: SK-OV-3 ovarian
IGROV1 ovarian = test system: IGROV1 ovarian
MALME-3M melanoma = test system: MALME-3M melanoma
HOP-92 NSCLC = test system: HOP-92 NSCLC

## COc1ccc(/C=C/C(=O)c2ccc(S(=O)(=O)NCCNc3nc(Nc4ccc(F)cc4)nc(N(C)C)n3)cc2)cc1
BT-549 breast
  GI50: 13.2 µM
  TGI: 27.4 µM
CAKI-1 renal
  GI50: 3.34 µM
  TGI: > 100 µM
HT29 colon
  GI50: 1.83 µM
  TGI: 3.73 µM
A498 renal
  GI50: 10 µM
  TGI: 29.7 µM
U251 CNS
  GI50: 6.7 µM
  TGI: 21.5 µM
NCI/ADR-RES ovarian
  GI50: 5.66 µM
  TGI: 35.5 µM
UO-31 renal
  GI50: 3.78 µM
  TGI: 99.4 µM
COLO 205 colon
  GI50: 3.46 µM
  TGI: 14.3 µM
SK-MEL-2 melanoma
  GI50: 8.1 µM
  TGI: 22.3 µM
MOLT-4 leukemia
  GI50: 3.12 µM
  TGI: 13.2 µM
SR leukemia
  GI50: 2.97 µM
  TGI: 13.2 µM
SF-268 CNS
  GI50: 4.43 µM
  TGI: 55.8 µM
T-47D breast
  GI50: 3.78 µM
  TGI: 89.8 µM
OVCAR-4 ovarian
  GI50: 4.12 µM
  TGI: > 100 µM
RXF 393 renal
  GI50: 2.59 µM
  TGI: 12.3 µM
HCC-2998 colon
  GI50: 5.47 µM
  TGI: 18 µM
HS 578T breast
  GI50: 4.68 µM
  TGI: 44.8 µM
SK-MEL-5 melanoma
  GI50: 3.5 µM
  TGI: 13.2 µM
KM12 colon
  GI50: 4.01 µM
  TGI: 16.7 µM
NCI-H226 lung
  GI50: 3.8 µM
  TGI: 20.4 µM
SNB-19 CNS
  GI50: 5.58 µM
  TGI: 45.5 µM
SN12C renal
  GI50: 3.6 µM
  TGI: 13.3 µM
MCF7 breast
  GI50: 1.93 µM
  TGI: 5.85 µM
A549 NSCLC
  GI50: 6.54 µM
  TGI: > 100 µM
SNB-75 CNS
  GI50: 3.57 µM
  TGI: > 100 µM
OVCAR-3 ovarian
  GI50: 5.01 µM
  TGI: 19.9 µM
SW-620 colon
  GI50: 5.42 µM
  TGI: 19.7 µM
OVCAR-8 ovarian
  GI50: 9.51 µM
  TGI: > 100 µM
HOP-62 NSCLC
  GI50: 17.1 µM
  TGI: > 100 µM
UACC-62 melanoma
  GI50: 4.79 µM
  TGI: 19.3 µM
PC-3 prostate
  GI50: 3.5 µM
  TGI: > 100 µM
NCI-H460 lung
  GI50: 4.11 µM
  TGI: 21.6 µM
K-562 leukemia
  GI50: 3.99 µM
  TGI: > 100 µM
SF-295 CNS
  GI50: 5.05 µM
  TGI: 18.7 µM
MDA-MB-468 breast
  GI50: 2.57 µM
  TGI: 10.3 µM
EKVX NSCLC
  GI50: 4.12 µM
  TGI: 22.3 µM
ACHN renal
  GI50: 3.4 µM
  TGI: > 100 µM
M14 melanoma
  GI50: 4.27 µM
  TGI: 19.2 µM
HCT-15 colon
  GI50: 2.71 µM
  TGI: 7.07 µM
TK-10 renal
  GI50: 8.09 µM
  TGI: > 100 µM
HL-60(TB) leukemia
  GI50: 3.6 µM
  TGI: 31.5 µM
MDA-MB-231 breast
  GI50: 2.73 µM
  TGI: 10.5 µM
CCRF-CEM leukemia
  GI50: 4.09 µM
  TGI: > 100 µM
LOX IMVI melanoma
  GI50: 3.23 µM
  TGI: 11.5 µM
NCI-H23 lung
  GI50: 10.4 µM
  TGI: 50.5 µM
MDA-MB-435
  GI50: 5.47 µM
  TGI: 23.4 µM
NCI-H522 lung
  GI50: 2.55 µM
  TGI: 12.5 µM
OVCAR-5 ovarian
  GI50: 8.44 µM
  TGI: 45.9 µM
HCT-116 colon
  GI50: 1.86 µM
  TGI: 3.62 µM
SK-MEL-28 melanoma
  GI50: 5.23 µM
  TGI: 19 µM
SF-539 CNS
  GI50: 10.3 µM
  TGI: 23 µM
786-0 renal
  GI50: 6.33 µM
  TGI: > 100 µM
DU-145 prostate
  GI50: 7.54 µM
  TGI: > 100 µM
UACC-257 melanoma
  GI50: 13.3 µM
  TGI: 38.4 µM
SK-OV-3 ovarian
  GI50: 13.9 µM
  TGI: 76.3 µM
IGROV1 ovarian
  GI50: 10.8 µM
  TGI: 45.6 µM
MALME-3M melanoma
  GI50: 10.6 µM
  TGI: 43.9 µM
HOP-92 NSCLC
  GI50: 3.25 µM
  TGI: 31 µM
